# Reference: ChEMBL document CHEMBL4392873, “Transformation of Santonin to a Naproxen Analogue with Anti-Inflammatory Activity” (J Nat Prod, 2019)
# Experiments:
# [1] = target: Prostaglandin G/H synthase 1 (Ovis aries) (UniProt P05979); test: Inhibition of ovine COX1 assessed as reduction in prostaglandin E2 production at 30 uM incubated for 10 mins before arachidonic acid addition and measured after 25 mins by LC-MS/MS analysis
# [2] = Selectivity index, ratio of IC50 for ovine COX1 to IC50 for COX2 (unknown origin)
# [3] = system: Prostaglandin G/H synthase 2; test: Inhibition of COX2 (unknown origin) assessed as reduction in prostaglandin E2 production at 30 uM incubated for 10 mins before arachidonic acid addition and measured after 25 mins by LC-MS/MS analysis; settings: Homo sapiens
compound,measurement,setting,value
COC(=O)[C@@H](C)c1ccc2c(C)cc(O)c(C)c2c1,inhibition,[1],52.9%
same,Ratio IC50,[2],0.496
same,inhibition,[3],21.8%
